As a reminder, the Ki is a dissociation constant, usually derived from enzyme kinetics or from competition with a known ligand. A low value points to higher affinity.

Consider three compounds from ChEMBL document CHEMBL1124356, “Active reduced-size hexapeptide analogues of luteinizing hormone-releasing hormone” (J Med Chem, 1989).

Assay [1] has as its target Gonadotropin-releasing hormone receptor (Rattus norvegicus) (UniProt P30969). The experiment in a line: Luteinizing hormone inhibiting potency in rats is expressed as negative logarithm of the concentration (antagonist). To be noted: read-out: pA2 (converted).
Assay [2] has as its target T1, Gonadotropin-releasing hormone receptor (Rattus norvegicus, UniProt P30969).
T1 sequence (P30969 whole entry): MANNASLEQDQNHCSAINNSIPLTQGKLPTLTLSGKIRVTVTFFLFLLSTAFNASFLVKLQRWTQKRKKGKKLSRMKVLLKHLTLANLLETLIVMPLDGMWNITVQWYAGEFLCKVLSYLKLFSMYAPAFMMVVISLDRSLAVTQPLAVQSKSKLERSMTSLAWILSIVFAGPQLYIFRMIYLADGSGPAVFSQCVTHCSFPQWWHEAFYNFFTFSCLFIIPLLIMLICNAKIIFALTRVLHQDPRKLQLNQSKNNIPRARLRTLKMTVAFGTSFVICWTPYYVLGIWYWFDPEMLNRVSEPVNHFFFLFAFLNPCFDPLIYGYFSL
As to the kind of experiment: In vitro binding affinity towards […] from rat pituitary cells is expressed as negative logarithm of the equilibrium dissociation constant. It is filed as cell-based, Pituitary gland cell.

Turning to `CCNC(=O)[C@@H]1CCCN1C(=O)[C@H](CCCN=C(N)N)NC(=O)[C@H](CC(C)C)NC(=O)[C@@H](Cc1c[nH]c2ccccc12)NC(=O)[C@H](Cc1ccc(O)cc1)NC(=O)[C@H](CO)NC(=O)[C@@H](N)Cc1c[nH]c2ccccc12`, the Kb in assay [1] is 57.5 nM. Same read-out and setting: in the case of `CCNC(=O)[C@@H]1CCCN1C(=O)[C@H](CCCN=C(N)N)NC(=O)[C@H](CC(C)C)NC(=O)[C@@H](CC(C)C)NC(=O)[C@H](Cc1ccc(O)cc1)NC(=O)[C@H](CO)NC(=O)[C@@H](N)Cc1c[nH]c2ccccc12` it was 871 nM. For `CCNC(=O)[C@@H]1CCCN1C(=O)[C@H](CCCN=C(N)N)NC(=O)[C@H](CC(C)C)NC(=O)[C@@H](CC(C)C)NC(=O)[C@H](Cc1ccc(O)cc1)NC(=O)[C@H](CO)NC(=O)[C@@H](N)Cc1cccc2ccccc12`, the inhibitory constant (Ki) in assay [2] was 50.1 nM.
